Laboratory results reported in ChEMBL document CHEMBL1201862, “PubChem BioAssay data set” (2004).
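48-hour exposure; five concentrations; linearly interpolated endpoints. The concentration for 50% growth inhibition is given as GI50.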 Active and inactive are the calls of the source. No stated cut-off is given here; in the data, active = GI50 up to about 1.1 µM and inactive = higher.

Columns and labels:
Assay in all cases: inhibition of tumour cell growth, NCI panel, 48 h
LOX IMVI = system: LOX IMVI
SF-268 = system: SF-268
SK-OV-3 = system: SK-OV-3
RXF 393 = system: RXF 393
SK-MEL-28 = system: SK-MEL-28
UACC-257 = system: UACC-257
OVCAR-4 = system: OVCAR-4
U-251 = system: U-251
OVCAR-5 = system: OVCAR-5
SN12C = system: SN12C
HOP-92 = system: HOP-92
SF-295 = system: SF-295
HCT-15 = system: HCT-15
CCRF-CEM = system: CCRF-CEM
HL-60 = system: HL-60
SNB-19 = system: SNB-19
UO-31 = system: UO-31
HT-29 = system: HT-29
KM12 = system: KM12
NCI-H460 = system: NCI-H460

| SMILES | GI50 (LOX IMVI) | GI50 (SF-268) | GI50 (SK-OV-3) | GI50 (RXF 393) | GI50 (SK-MEL-28) | GI50 (UACC-257) | GI50 (OVCAR-4) | GI50 (U-251) | GI50 (OVCAR-5) | GI50 (SN12C) | GI50 (HOP-92) | GI50 (SF-295) | GI50 (HCT-15) | GI50 (CCRF-CEM) | GI50 (HL-60) | GI50 (SNB-19) | GI50 (UO-31) | GI50 (HT-29) | GI50 (KM12) | GI50 (NCI-H460) |
| --- | --- | --- | --- | --- | --- | --- | --- | --- | --- | --- | --- | --- | --- | --- | --- | --- | --- | --- | --- | --- |
| CC(=O)Oc1ccc(C2COc3cc(OC(C)=O)c(OC(C)=O)cc3C2)cc1 (stereo not given) | > 37.1 µM (inactive) | 13.7 µM (inactive) | 20.7 µM (inactive) | 13.6 µM (inactive) | 16.3 µM (inactive) | 17.7 µM (inactive) | 14.4 µM (inactive) | 13.2 µM (inactive) | 56.9 µM (inactive) | 22.4 µM (inactive) | 3.88 µM (inactive) | 22.2 µM (inactive) | 18.5 µM | 7.57 µM (inactive) | 4.11 µM (inactive) | 32.2 µM (inactive) | 22.3 µM (inactive) | 49.3 µM (inactive) | 25 µM (inactive) | 17.9 µM (inactive) |
| CC(C)OP(=O)(OC(C)C)c1ncn(-c2ccc([N+](=O)[O-])cc2)n1 |  | > 100 µM (inactive) | > 100 µM (inactive) | > 100 µM (inactive) | > 100 µM (inactive) | > 100 µM (inactive) | > 100 µM (inactive) | > 100 µM (inactive) | > 100 µM (inactive) | > 100 µM (inactive) | > 100 µM (inactive) | > 100 µM (inactive) | > 100 µM | > 100 µM (inactive) | > 100 µM (inactive) | > 100 µM (inactive) | > 100 µM (inactive) | > 100 µM (inactive) | > 100 µM (inactive) | > 100 µM (inactive) |
| CC(C)(CCCCC(C)(C)C1NC(=O)N1)C1NC(=O)N1 | > 10 µM (inactive) | > 10 µM (inactive) | > 10 µM (inactive) | > 10 µM (inactive) | > 10 µM (inactive) |  | > 10 µM (inactive) | > 10 µM (inactive) | > 10 µM (inactive) | > 10 µM (inactive) |  | > 10 µM (inactive) | > 10 µM | > 10 µM (inactive) | > 10 µM (inactive) | > 10 µM (inactive) | 5.05 µM (inactive) | > 10 µM (inactive) | > 10 µM (inactive) | > 10 µM (inactive) |
| COc1ccc(C(O)/C(=N\NC(N)=S)c2nc3ccc([N+](=O)[O-])cc3nc2O)cc1OC (stereo not given) | > 100 µM (inactive) | > 100 µM (inactive) | > 100 µM (inactive) | > 100 µM (inactive) | > 100 µM (inactive) | 64.3 µM (inactive) | > 100 µM (inactive) | > 100 µM (inactive) | > 100 µM (inactive) |  | > 100 µM (inactive) | > 100 µM (inactive) |  | > 100 µM (inactive) | > 100 µM (inactive) |  | > 100 µM (inactive) | > 100 µM (inactive) | > 100 µM (inactive) | > 100 µM (inactive) |
| COc1cc2c(cc1OC)C1Cc3cc(OC)c(OC)cc3C(C2)O1 | > 100 µM (inactive) | > 100 µM (inactive) | > 100 µM (inactive) | > 100 µM (inactive) | > 100 µM (inactive) | > 100 µM (inactive) | > 100 µM (inactive) | > 100 µM (inactive) | > 100 µM (inactive) | > 100 µM (inactive) | > 100 µM (inactive) | 95.7 µM (inactive) |  | 60.1 µM (inactive) |  | > 100 µM (inactive) | 83.8 µM (inactive) | > 100 µM (inactive) | > 100 µM (inactive) | > 100 µM (inactive) |
| CCCc1c(-c2ccccc2)[nH]c2ccccc2c1=O | 23.9 µM (inactive) | 72.4 µM (inactive) | 42.3 µM (inactive) | > 100 µM (inactive) | 33.7 µM (inactive) | > 100 µM (inactive) | > 100 µM (inactive) | 51.3 µM (inactive) | 45 µM (inactive) | 89.1 µM (inactive) | > 100 µM (inactive) | > 100 µM (inactive) | 27.4 µM | 41.3 µM (inactive) | > 100 µM (inactive) | 65.2 µM (inactive) | 19.2 µM (inactive) | 22.6 µM (inactive) | 27.7 µM (inactive) | 29.9 µM (inactive) |
| ClCCCN1CCCCC1CCl (stereo not given) | > 100 µM (inactive) | 53.2 µM (inactive) | > 100 µM (inactive) | > 100 µM (inactive) | > 100 µM (inactive) |  | > 100 µM (inactive) | > 100 µM (inactive) | > 100 µM (inactive) | > 100 µM (inactive) | > 100 µM (inactive) | 70.1 µM (inactive) | > 100 µM | 20.9 µM (inactive) | 52.7 µM (inactive) | > 100 µM (inactive) | 92.7 µM (inactive) | > 100 µM (inactive) | > 100 µM (inactive) | 10.2 µM (inactive) |
| N#CCCN(c1ccc(/C=N/c2cccc([N+](=O)[O-])c2)cc1)S(=O)(=O)c1ccccc1 |  | > 100 µM (inactive) | > 100 µM (inactive) |  | > 100 µM (inactive) | > 100 µM (inactive) | > 100 µM (inactive) |  |  | > 100 µM (inactive) | > 100 µM (inactive) | > 100 µM (inactive) |  | > 100 µM (inactive) | > 100 µM (inactive) | > 100 µM (inactive) | 36.3 µM (inactive) | > 100 µM (inactive) | > 100 µM (inactive) |  |
| C[C@]12CC[C@H]3[C@@H](CC=C4C[C@@H](O)CC[C@@]43C)[C@@H]1C/C(=C\c1ccc([N+](=O)[O-])cc1)[C@@H]2O | 18.8 µM (inactive) | 26.1 µM (inactive) | 13.7 µM (inactive) | 9.71 µM (inactive) | 19.3 µM (inactive) | 16.3 µM (inactive) | < 0.01 µM (active) |  | 25.2 µM (inactive) | 10.6 µM (inactive) | 21.1 µM (inactive) | 16.8 µM (inactive) | 10.9 µM | 5.14 µM (inactive) | 2.65 µM (inactive) | 16.9 µM (inactive) | 8.93 µM (inactive) | 5.83 µM (inactive) | 18.5 µM (inactive) | 16.1 µM (inactive) |
| CN1CCc2[nH]c3ccccc3c2C1 | > 100 µM (inactive) | > 100 µM (inactive) | > 100 µM (inactive) | > 100 µM (inactive) | > 100 µM (inactive) | > 100 µM (inactive) | > 100 µM (inactive) | > 100 µM (inactive) | > 100 µM (inactive) | > 100 µM (inactive) | > 100 µM (inactive) | > 100 µM (inactive) | > 100 µM | > 100 µM (inactive) | 87.9 µM (inactive) | > 100 µM (inactive) | > 100 µM (inactive) | > 100 µM (inactive) | > 100 µM (inactive) | > 100 µM (inactive) |
| CSCSCC(CO)NC(=O)/C(C)=C\c1c(C)[nH]c(=O)[nH]c1=O (stereo not given) | > 250 µM (inactive) | > 250 µM (inactive) | > 250 µM (inactive) | > 250 µM (inactive) | > 250 µM (inactive) | 170 µM (inactive) | > 250 µM (inactive) | > 250 µM (inactive) | 207 µM (inactive) | > 250 µM (inactive) | 20.3 µM (inactive) | > 250 µM (inactive) | 225 µM | > 250 µM (inactive) | > 250 µM (inactive) | 48.3 µM (inactive) | > 250 µM (inactive) | > 250 µM (inactive) | 200 µM (inactive) | > 250 µM (inactive) |
| O=C(N[C@H]1c2ccsc2/C(=N/O)[C@H]1O)C(F)(F)F | > 100 µM (inactive) | > 100 µM (inactive) | > 100 µM (inactive) | > 100 µM (inactive) | > 100 µM (inactive) | > 100 µM (inactive) |  | > 100 µM (inactive) | > 100 µM (inactive) | > 100 µM (inactive) | > 100 µM (inactive) | > 100 µM (inactive) | > 100 µM | > 100 µM (inactive) | > 100 µM (inactive) | > 100 µM (inactive) | > 100 µM (inactive) | > 100 µM (inactive) |  | > 100 µM (inactive) |
| Cc1cc(C)c(NC(=O)/C=C/c2ccccc2)c(C)c1 |  | > 100 µM (inactive) | > 100 µM (inactive) | > 100 µM (inactive) | > 100 µM (inactive) | > 100 µM (inactive) | 94.6 µM (inactive) | > 100 µM (inactive) | > 100 µM (inactive) |  | 56.6 µM (inactive) | 87.1 µM (inactive) | 78 µM | > 100 µM (inactive) | 36.1 µM (inactive) | 61.9 µM (inactive) | > 100 µM (inactive) | > 100 µM (inactive) | > 100 µM (inactive) | > 100 µM (inactive) |
| CCCCn1cc[n+](-c2nc3ccccc3n2C)c1 | > 100 µM (inactive) | > 10 µM (inactive) | > 100 µM (inactive) | > 100 µM (inactive) |  | > 100 µM (inactive) | > 100 µM (inactive) | > 100 µM (inactive) | > 100 µM (inactive) | > 100 µM (inactive) |  | > 100 µM (inactive) | > 100 µM | > 100 µM (inactive) | > 100 µM (inactive) | > 100 µM (inactive) | > 100 µM (inactive) | > 100 µM (inactive) |  | > 100 µM (inactive) |
| c1ccc(Nc2nnc(-c3nsc4ccccc34)o2)cc1 | > 100 µM (inactive) | > 100 µM (inactive) |  | 51.5 µM (inactive) | > 100 µM (inactive) | > 100 µM (inactive) | 41 µM (inactive) | 31.4 µM (inactive) | > 100 µM (inactive) | 71.1 µM (inactive) | 19.2 µM (inactive) |  | > 100 µM | 71.1 µM (inactive) | > 100 µM (inactive) | 37.8 µM (inactive) | > 100 µM (inactive) | > 100 µM (inactive) | > 100 µM (inactive) | 62.1 µM (inactive) |
